Test [1] has as its target T1, Alpha-1B adrenergic receptor (Rattus norvegicus, UniProt P15823).
T1 sequence (P15823 whole entry): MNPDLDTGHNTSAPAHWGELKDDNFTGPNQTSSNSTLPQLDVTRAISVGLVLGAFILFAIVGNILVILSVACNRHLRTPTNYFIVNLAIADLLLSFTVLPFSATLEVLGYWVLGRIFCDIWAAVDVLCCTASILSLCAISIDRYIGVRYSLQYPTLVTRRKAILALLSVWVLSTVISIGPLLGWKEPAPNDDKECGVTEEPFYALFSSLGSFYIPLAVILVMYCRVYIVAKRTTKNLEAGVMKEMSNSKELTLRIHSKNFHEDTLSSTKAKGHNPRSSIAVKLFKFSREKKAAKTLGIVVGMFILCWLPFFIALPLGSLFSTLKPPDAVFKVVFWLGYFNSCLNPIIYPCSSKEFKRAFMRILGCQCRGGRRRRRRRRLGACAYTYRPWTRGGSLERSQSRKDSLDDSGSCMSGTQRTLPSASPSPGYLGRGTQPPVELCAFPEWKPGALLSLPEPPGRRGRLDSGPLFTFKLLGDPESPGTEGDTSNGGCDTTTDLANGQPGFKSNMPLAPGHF
Nature of the test: DRUGMATRIX: Alpha-1B adrenergic receptor radioligand binding (ligand: prazosin). Format: cell membranes, Wistar, Liver, Membrane. The settings on record: Not Active = under 50% inhibition at 10 µM.

The target in test [2] is T2, Type-2 angiotensin II receptor (Homo sapiens, UniProt P50052). Note: in other assays of this panel Not Active means under 50% inhibition at 10 µM.
T2 sequence (P50052 whole entry): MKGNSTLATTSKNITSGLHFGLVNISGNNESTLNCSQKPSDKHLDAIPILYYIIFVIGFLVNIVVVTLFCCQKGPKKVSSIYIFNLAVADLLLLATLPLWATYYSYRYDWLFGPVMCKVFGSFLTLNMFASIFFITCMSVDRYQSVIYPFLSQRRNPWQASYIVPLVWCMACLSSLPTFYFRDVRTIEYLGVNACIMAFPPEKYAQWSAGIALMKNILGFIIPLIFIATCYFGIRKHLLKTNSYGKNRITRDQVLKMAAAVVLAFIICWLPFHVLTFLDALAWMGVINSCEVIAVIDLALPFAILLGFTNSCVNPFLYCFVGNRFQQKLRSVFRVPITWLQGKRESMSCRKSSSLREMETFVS
Format: cell-based. As to conditions: cho-k1.

For test [3], the target named is T3, C-X-C chemokine receptor type 2 (Homo sapiens, UniProt P25025). Note: in other assays of this panel Not Active means under 50% inhibition at 10 µM.
T3 sequence (P25025 whole entry): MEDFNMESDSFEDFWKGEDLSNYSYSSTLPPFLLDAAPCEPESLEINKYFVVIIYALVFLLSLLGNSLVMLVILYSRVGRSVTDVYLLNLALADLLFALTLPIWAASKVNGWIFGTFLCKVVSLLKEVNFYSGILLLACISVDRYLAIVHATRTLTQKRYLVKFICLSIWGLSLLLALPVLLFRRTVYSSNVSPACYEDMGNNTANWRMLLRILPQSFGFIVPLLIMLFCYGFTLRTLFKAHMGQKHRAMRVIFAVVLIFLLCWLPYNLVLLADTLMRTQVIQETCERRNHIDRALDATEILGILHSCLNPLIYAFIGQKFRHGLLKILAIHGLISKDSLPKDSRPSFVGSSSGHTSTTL
Format: cell membranes, Membrane. As to conditions: cho-k1.

The target in a further test is D(1A) dopamine receptor (Homo sapiens, UniProt P21728). The test can be described thus: DRUGMATRIX: Dopamine D1 radioligand binding (ligand: [3H] SCH-23390). Format: cell membranes, CHO, Membrane. The settings on record: Not Active = under 50% inhibition at 10 µM.
Test [4] can be described thus: DRUGMATRIX: Imidazoline I2, Central radioligand binding (ligand: [3H] Idazoxan). Format: cell membranes, Rattus norvegicus, Wistar, Cerebral cortex, Membrane. The settings on record: Not Active = under 50% inhibition at 10 µM.
The next test deals with T4, Neutrophil elastase (Homo sapiens, UniProt P08246).
T4 sequence (P08246 whole entry): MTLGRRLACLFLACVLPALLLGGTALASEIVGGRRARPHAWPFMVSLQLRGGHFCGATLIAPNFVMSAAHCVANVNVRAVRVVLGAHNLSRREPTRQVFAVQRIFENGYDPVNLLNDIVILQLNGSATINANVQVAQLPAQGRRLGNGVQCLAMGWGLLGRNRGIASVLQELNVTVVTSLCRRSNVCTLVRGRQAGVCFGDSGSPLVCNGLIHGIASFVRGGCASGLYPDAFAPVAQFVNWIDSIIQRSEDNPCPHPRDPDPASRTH
Format: tissue-based.

Test [5] concerns the target T5, 5-hydroxytryptamine receptor 1A (Rattus norvegicus, UniProt P19327). Note: in other assays of this panel Not Active means under 50% inhibition at 10 µM.
T5 sequence (P19327 whole entry): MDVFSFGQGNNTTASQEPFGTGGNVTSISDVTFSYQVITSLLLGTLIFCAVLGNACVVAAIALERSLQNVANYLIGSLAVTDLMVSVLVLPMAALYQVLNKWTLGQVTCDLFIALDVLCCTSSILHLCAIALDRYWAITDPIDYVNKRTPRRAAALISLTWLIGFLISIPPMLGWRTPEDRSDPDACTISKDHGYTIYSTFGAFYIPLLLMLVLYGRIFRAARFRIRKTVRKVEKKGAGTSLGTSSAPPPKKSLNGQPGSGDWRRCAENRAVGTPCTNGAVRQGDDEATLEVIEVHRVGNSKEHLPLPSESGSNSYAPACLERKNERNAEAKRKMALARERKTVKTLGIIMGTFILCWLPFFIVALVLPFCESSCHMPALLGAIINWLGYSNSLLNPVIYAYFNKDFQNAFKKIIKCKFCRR
Format: cell membranes, CHO-K1, Membrane.

Another test concerns the target T6, Glucocorticoid receptor (Homo sapiens, UniProt P04150). Note: in other assays of this panel Not Active means under 50% inhibition at 10 µM.
T6 sequence (P04150 whole entry): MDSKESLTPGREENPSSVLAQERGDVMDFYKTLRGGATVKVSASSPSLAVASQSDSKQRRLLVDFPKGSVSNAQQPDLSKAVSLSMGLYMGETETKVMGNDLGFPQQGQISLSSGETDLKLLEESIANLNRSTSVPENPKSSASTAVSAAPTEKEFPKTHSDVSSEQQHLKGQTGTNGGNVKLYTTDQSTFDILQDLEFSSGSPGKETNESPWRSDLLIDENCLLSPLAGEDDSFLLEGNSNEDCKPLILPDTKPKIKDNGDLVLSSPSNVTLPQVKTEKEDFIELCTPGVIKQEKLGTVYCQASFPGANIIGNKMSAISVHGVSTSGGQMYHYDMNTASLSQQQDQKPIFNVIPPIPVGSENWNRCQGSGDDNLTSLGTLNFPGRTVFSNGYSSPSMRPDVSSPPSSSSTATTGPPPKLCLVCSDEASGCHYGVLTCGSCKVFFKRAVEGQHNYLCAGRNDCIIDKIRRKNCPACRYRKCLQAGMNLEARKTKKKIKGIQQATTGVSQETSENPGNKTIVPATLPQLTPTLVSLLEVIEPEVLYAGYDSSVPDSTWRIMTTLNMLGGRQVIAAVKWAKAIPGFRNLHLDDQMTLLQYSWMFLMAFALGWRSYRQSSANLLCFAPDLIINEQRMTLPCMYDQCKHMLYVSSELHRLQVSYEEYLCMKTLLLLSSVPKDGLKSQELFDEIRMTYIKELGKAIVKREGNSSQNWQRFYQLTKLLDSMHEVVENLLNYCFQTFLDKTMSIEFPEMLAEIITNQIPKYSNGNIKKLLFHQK
The settings on record: hela s3.

Chain of D(1A) dopamine receptor (P21728 whole entry): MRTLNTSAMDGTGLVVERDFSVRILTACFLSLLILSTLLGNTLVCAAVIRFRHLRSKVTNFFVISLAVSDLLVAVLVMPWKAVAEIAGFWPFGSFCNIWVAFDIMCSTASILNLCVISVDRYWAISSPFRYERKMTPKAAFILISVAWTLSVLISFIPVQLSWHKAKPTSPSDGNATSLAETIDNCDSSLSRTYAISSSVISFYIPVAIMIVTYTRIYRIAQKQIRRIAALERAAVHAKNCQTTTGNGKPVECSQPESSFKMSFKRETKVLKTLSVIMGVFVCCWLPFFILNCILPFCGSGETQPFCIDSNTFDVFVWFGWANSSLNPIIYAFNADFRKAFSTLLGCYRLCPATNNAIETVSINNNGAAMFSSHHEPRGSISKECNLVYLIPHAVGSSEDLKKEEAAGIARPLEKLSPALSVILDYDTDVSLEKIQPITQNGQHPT

Regarding `CC1=Nc2ccc(Cl)cc2S(=O)(=O)N1` [DIAZOXIDE], the IC50 result (in test [1]; in test [2]; in test [3]; on D(1A) dopamine receptor (cho); in test [4]; at Neutrophil elastase) was “Not Active” throughout. Also, the half-maximal inhibitory concentration (IC50) entry (in test [5] (cho-k1); against Glucocorticoid receptor) was “Not Active” each time. For the same compound, in test [4], the Ki entry was “Not Active”.

As to `COc1ccc([C@@H]2Sc3ccccc3N(CCN(C)C)C(=O)[C@@H]2OC(C)=O)cc1` [DILTIAZEM], the concentration for half-maximal inhibition (IC50) entry (in test [1]; in test [2]; in test [3]; at D(1A) dopamine receptor (cho); in test [4]; against Neutrophil elastase) was “Not Active” in each case. Moreover, the IC50 result (in test [5] (cho-k1); against Glucocorticoid receptor) was “Not Active” each time. In addition, the Ki entry in test [4] is recorded as “Not Active”.

On to `CCc1ccc(C(=O)C(C)CN2CCCCC2)cc1` (stereo not drawn) [EPERISONE], for which the IC50 result (in test [1]; in test [2]; in test [3]; on D(1A) dopamine receptor (cho); in test [4]; against Neutrophil elastase) was “Not Active” in each case. The half-maximal inhibitory concentration (IC50) result (in test [5] (cho-k1); against Glucocorticoid receptor) was “Not Active” each time. Moreover, the inhibition constant Ki entry in test [4] was “Not Active”.

For the compound `C=C1CC[C@H](O)C/C1=C/C=C1\CCC[C@]2(C)[C@@H]([C@H](C)/C=C/[C@H](C)C(C)C)CC[C@@H]12` [ERGOCALCIFEROL], the 50% inhibitory concentration (IC50) result (in test [1]; in test [2]; in test [3]; on D(1A) dopamine receptor (cho); in test [4]; against Neutrophil elastase) was “Not Active” in each case. In addition, the 50% inhibitory concentration (IC50) result (in test [5] (cho-k1); at Glucocorticoid receptor) was “Not Active” in each case. In test [4], the Ki entry is given as “Not Active”.

On to `CN1C[C@H](C(=O)N[C@]2(C)O[C@@]3(O)[C@@H]4CCCN4C(=O)[C@H](Cc4ccccc4)N3C2=O)C=C2c3cccc4[nH]cc(c34)C[C@H]21` [ERGOTAMINE], for which the IC50 in test [1] (read-out: IC50) was 8.21 nM; in test [2], “Not Active”; in test [3], “Not Active”; at D(1A) dopamine receptor (read-out: IC50), 1730 nM; in test [4] (read-out: IC50) it was 3.65 nM; at Neutrophil elastase, “Not Active”. Also, the figures for the IC50 (in test [5] (read-out: IC50); on Glucocorticoid receptor) were 0.774 nM and “Not Active”, respectively. Moreover, the Ki in test [1] (read-out: Ki) worked out at 4.55 nM; at D(1A) dopamine receptor (read-out: Ki), 864 nM; in test [4] (read-out: Ki), 2.43 nM; in test [5] (read-out: Ki) it was 0.443 nM.

Regarding `Cc1c(-c2ccccc2)oc2c(C(=O)OCCN3CCCCC3)cccc2c1=O` [FLAVOXATE], the IC50 result (in test [1]; in test [2]; in test [3]; on D(1A) dopamine receptor (cho); in test [4]; against Neutrophil elastase) was “Not Active” in each case. Besides, the concentration for half-maximal inhibition (IC50) entry (in test [5] (cho-k1); on Glucocorticoid receptor) was “Not Active” throughout. Further, in test [4], the Ki result is listed as “Not Active”.

Turning to `Nc1nc(=O)[nH]cc1F` [FLUCYTOSINE], the IC50 result (in test [1]; in test [2]; in test [3]; at D(1A) dopamine receptor (cho); in test [4]; against Neutrophil elastase) was “Not Active” throughout. The half-maximal inhibitory concentration (IC50) entry (in test [5] (cho-k1); on Glucocorticoid receptor) was “Not Active” in each case. In addition, in test [4], the Ki result was “Not Active”.

On to `O=C1OC2(c3ccc(O)cc3Oc3cc(O)ccc32)c2ccccc21` [FLUORESCEIN], for which the half-inhibitory concentration (IC50) result (in test [1]; in test [2]; in test [3]; on D(1A) dopamine receptor (cho); in test [4]; on Neutrophil elastase) was “Not Active” each time. Moreover, the half-inhibitory concentration (IC50) result (in test [5] (cho-k1); on Glucocorticoid receptor) was “Not Active” each time. Moreover, the Ki entry in test [4] was “Not Active”.

With `O=c1[nH]cc(F)c(=O)[nH]1` [FLUOROURACIL], the half-maximal inhibitory concentration (IC50) result (in test [1]; in test [2]; in test [3]; on D(1A) dopamine receptor (cho); in test [4]; at Neutrophil elastase) was “Not Active” in each case. Besides, the 50% inhibitory concentration (IC50) result (in test [5] (cho-k1); against Glucocorticoid receptor) was “Not Active” in each case. Besides, in test [4], the Ki entry was “Not Active”.

Take `CC(C)n1c(/C=C/C(O)CC(O)CC(=O)O)c(-c2ccc(F)cc2)c2ccccc21` (stereo not drawn) [FLUVASTATIN]: the IC50 result (in test [1]; in test [2]; in test [3]; on D(1A) dopamine receptor (cho); in test [4]; against Neutrophil elastase) was “Not Active” each time. Also, the IC50 entry (in test [5] (cho-k1); on Glucocorticoid receptor) was “Not Active” in each case. The Ki result in test [4] was “Not Active”.

As a reminder, the IC50 is the concentration at which inhibition is half-maximal. In general, Ki refers to the equilibrium dissociation constant of an inhibitor or competing ligand from its target.
